Activity calls are given as the source filed them. The rule behind the calls is not given here.
What follows are molecules tested against Induced myeloid leukemia cell differentiation protein Mcl-1 (Homo sapiens) (UniProt Q07820) (assay: Mcl-1/Bim interaction regulators – biochemical, bead-based flow cytometry, multiplexed, human, dose response (AID 1329)). Details: Bim peptide-Mcl-1 binding, MCF.
Induced myeloid leukemia cell differentiation protein Mcl-1 (Homo sapiens), sequence (Q07820 whole entry, looked up): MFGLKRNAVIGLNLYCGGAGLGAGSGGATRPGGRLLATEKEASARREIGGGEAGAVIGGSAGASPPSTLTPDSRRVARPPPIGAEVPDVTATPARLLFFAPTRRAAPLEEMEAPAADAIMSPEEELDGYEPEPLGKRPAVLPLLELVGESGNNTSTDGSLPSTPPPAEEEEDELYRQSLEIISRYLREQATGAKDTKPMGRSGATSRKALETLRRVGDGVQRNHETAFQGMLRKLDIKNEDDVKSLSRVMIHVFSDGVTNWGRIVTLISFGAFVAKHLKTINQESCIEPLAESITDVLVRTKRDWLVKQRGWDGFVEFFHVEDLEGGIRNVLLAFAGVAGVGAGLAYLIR

percent span | Structure (SMILES)
inactive | CC(C(=O)Nc1cc([N+](=O)[O-])ccc1Cl)N1CCN(c2ccc(O)cc2)CC1 (stereo unspecified)
inactive | O=C(C1CCC(Cn2c(=S)[nH]c3ccccc3c2=O)CC1)N1CCN(c2ccccn2)CC1 (stereo unspecified)
inactive | COc1ccc(OCCNC(=O)c2ccccc2OCC(=O)N2CCCCC2)cc1
inactive | CCCCC(=O)Nc1ccc(C(=O)N2CCC(C(=O)OCC)CC2)cc1
inactive | Cc1ccc(-c2cc(-c3ccccc3Cl)c(C#N)c(N)n2)o1
inactive | O=C(COc1ccc(Br)cc1CNC1CCCCC1)NCCc1ccccc1
inactive | C=CS(=O)c1sc(Cl)c(N2CCOCC2)c1[N+](=O)[O-] (stereo unspecified)
inactive | CCOc1ccc(-n2cc(-c3ccc(OC)c(OC)c3)[nH]c2=S)cc1
inactive | Cc1cccc(Nc2nc(-c3ccncc3)cs2)c1
inactive | CCOC(=O)C1=C(CC)Nc2ccccc2N=C1NC(=O)c1ccc(S(=O)(=O)N2CCOCC2)cc1
inactive | CCC(=O)NC(c1ccc(C)cc1)c1cc([N+](=O)[O-])c2cccnc2c1O (stereo unspecified)
inactive | Cc1ccc(C)c(Oc2ncnc(N)c2[N+](=O)[O-])c1
inactive | CCOc1cccc(CNc2ccc(O)cc2)c1OCc1ccccc1Cl
inactive | O=C(Nc1nnc(C2CC2)s1)C1Cc2ccccc2CN1S(=O)(=O)c1ccccc1F (stereo unspecified)
inactive | Cc1ccc(-c2cc(-c3ccccc3)c(C#N)c(N)n2)o1
inactive | CC(C)COC(=O)/C(C#N)=C/c1cn(Cc2ccccc2)c2ccccc12
inactive | Cc1nc2ccccc2n1CSc1ccccc1
inactive | Cc1ccc(-c2cc(C(=O)N3CCN(c4ncccn4)CC3)c3cc(Br)ccc3n2)o1
inactive | CN=c1scc(C)n1/N=C/c1ccc(O)c(O)c1O
inactive | CCOc1cc(C2Nc3cccc4cccc(c34)N2)ccc1O
inactive | CN(C(=O)NC1CCCCC1)c1ccccc1

percent span | Structure (SMILES)
inactive | CCCCOc1ccc(Cc2c(Cl)nc(SC)nc2N2CCOCC2)cc1
inactive | O=C1/C(=C/c2cccs2)Sc2ccccc21
inactive | COc1cccc(/C=N/NC(=O)c2cc3cc([N+](=O)[O-])ccc3s2)c1O
inactive | Cc1ccc(NC2=C(NC(=O)c3ccccc3)C(=O)c3ccccc3C2=O)cc1Cl
inactive | COc1cccc(NC(=O)CSc2nncn2N)c1
inactive | COc1ccc(S(=O)(=O)NCCSc2ccc(Cl)cc2)cc1OC
inactive | Cn1c(=O)c(C(=O)COC(=O)c2cc(-c3ccco3)nc3ccccc23)c(N)n(CC2CC2)c1=O
inactive | CCOC(=O)c1cc2c(=O)n3cccc(C)c3nc2n(Cc2ccco2)c1=NC(=O)c1ccccc1
inactive | Nc1ccc(-c2cn3cccnc3n2)cc1
inactive | COc1cc(C2Nc3cccc4cccc(c34)N2)cc(OC)c1O
inactive | O=C(NC1=C(NC2CCS(=O)(=O)C2)C(=O)c2ccccc2C1=O)c1ccccc1 (stereo unspecified)
inactive | CCOC(=O)c1nc(Nc2ccc(N3CCC(C)CC3)cc2)c2ccccc2n1
inactive | Cc1nnc(Sc2cc(NCCCO)c([N+](=O)[O-])c3nonc23)s1
inactive | O=S1(=O)N=C(N(CCO)/N=C/c2ccncc2)c2ccccc21
inactive | COc1ccc(C2CC(=O)C3=C(C2)Nc2ccccc2NC3c2coc3ccccc3c2=O)cc1OC (stereo unspecified)
inactive | CCOc1ccccc1NC(=O)CSc1nnc2ccc(-c3cccnc3)nn12
inactive | CC(=O)NC1=C(NC2CCS(=O)(=O)C2)C(=O)c2ccccc2C1=O (stereo unspecified)
inactive | Cc1ccc(NC(=O)CSc2nc3ccccc3c(=O)n2CCCN2CCCCC2)cc1Cl
inactive | O=C(/C=C/c1ccc(-c2ccccc2[N+](=O)[O-])o1)c1ccc(F)cc1
inactive | CN(C)c1ccc(Nc2nc(-c3cccnc3)cs2)cc1

Reference: PubChem BioAssay AID1329 (NMMLSC, 2008)
